Data taken from patent EP0109255A2, “Glycerol derivatives” (ONO PHARMACEUTICAL CO., LTD., priority 1982, dated 1984).

Test system: mice
Assay: Acute toxicity by intravenous administration (tail vein)
Assay type: in vivo
Description: On the other hand, it was confirmed that the acute toxicity of all extent of the compounds of the present invention was more. than 30 mg/kg by intravenous administration. Therefore, glycerol derivatives of the present invention may be considered to be sufficiently safe and suitable for medical use. For example, the mortality (dead/used) in glycerol derivatives of the present invention, i.e. compounds prepared in Example 8, 8(j) and 8(r) was 2/10, 0/10 and 0/10, respectively, when each glycerol compound was intravenously administered to tail vein in ten mice at the dose of 30 mg/kg.

Row | SMILES | mortality (dead/used) (mouse, in vivo, iv, 30 mg/kg) | mortality (dead/used) (intravenously administered to tail vein in ten mice at the dose of 30 mg/kg)
1 | CCCCCCCCCCCCCCCCOCC(COCCCC[N+](C)(C)C)NC(=O)c1ccccc1 (stereo not drawn) [Example 8] | 2/10 | 
2 | CCCCCCCCCCCCCCCCOCC(COCCCC[N+](C)(C)C)NC(=O)OCCCC (racemic) [8 (j), (2RS)-l-0-hexadecyl-2-dehydroxy-2-butoxycarbonylamino-3-0-[4-(N,N,N-trimethylammonio)butyl]glycerol iodide] |  | 0/10
3 | CCCCCCCCCCCCCCCCOCC(COCCCC[N+](C)(C)C)NC(=O)NCCC (stereo not drawn) [8 (r)] | 0/10 | 
